Measurements taken from PubChem BioAssay AID248 (DTP/NCI, 2004).
“And” between values parts separate entries of the source, which are not always exact repeats. Identical values can stand only once. Inconclusive results and toxic doses are left out. No stated cut-off is given here; in the data, active means T/C of 150% or more; inactive means T/C below 125%.

Test system: L1210 leukemia ip in BDF1 mice, survival T/C
Test: NCI In Vivo Anticancer Drug Screen. Data for tumor model L1210 Leukemia (intraperitoneal) in B6D2F1 (BDF1) mice
Details: endpoint: mean survival time, higher = longer survival
Summary of the method: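 Tumor was transplanted into mice, which were then dosed with test compound or vehicle alone. Survival was recorded for each group, and the treated figure was expressed relative to the control figure.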

[1] = dose: 50.0 mg/kg/injection, schedule: Q01DX009 (ip), vehicle: saline

Measured: T/C

N=C(N[N+](=O)[O-])N(CCC(=O)O)N=O
inactive: dose: 50.0 mg/kg/injection, schedule: Q01DX001 (ip), vehicle: saline 100 % of control | [1] 90 % of control | dose: 53.0 mg/kg/injection, schedule: Q01DX015 (ip), vehicle: saline 113 % of control | dose: 79.0 mg/kg/injection, schedule: Q01DX015 (ip), vehicle: saline 124 % of control | dose: 100.0 mg/kg/injection, schedule: Q01DX001 (ip), vehicle: other 97 % of control | dose: 100.0 mg/kg/injection, schedule: Q01DX001 (ip), vehicle: saline 107 % of control | dose: 100.0 mg/kg/injection, schedule: Q01DX009 (ip), vehicle: other 103 % of control | dose: 100.0 mg/kg/injection, schedule: Q01DX009 (ip), vehicle: saline 96 % of control | dose: 100.0 mg/kg/injection, schedule: Q04DX003 (ip), vehicle: saline 96 % of control | dose: 178.0 mg/kg/injection, schedule: Q01DX001 (ip), vehicle: saline 109 % of control and 122 % of control | dose: 178.0 mg/kg/injection, schedule: Q01DX015 (ip), vehicle: saline 116 % of control | dose: 200.0 mg/kg/injection, schedule: Q01DX001 (ip), vehicle: other 101 % of control | dose: 200.0 mg/kg/injection, schedule: Q01DX001 (ip), vehicle: saline 113 % of control | dose: 200.0 mg/kg/injection, schedule: Q01DX009 (ip), vehicle: other 98 % of control | dose: 200.0 mg/kg/injection, schedule: Q01DX009 (ip), vehicle: saline 104 % of control | dose: 200.0 mg/kg/injection, schedule: Q04DX003 (ip), vehicle: saline 98 % of control | dose: 267.0 mg/kg/injection, schedule: Q01DX001 (ip), vehicle: saline 112 % of control and 121 % of control | dose: 400.0 mg/kg/injection, schedule: Q01DX001 (ip), vehicle: other 100 % of control | dose: 400.0 mg/kg/injection, schedule: Q01DX009 (ip), vehicle: other 98 % of control | dose: 400.0 mg/kg/injection, schedule: Q01DX009 (ip), vehicle: saline 100 % of control | dose: 400.0 mg/kg/injection, schedule: Q04DX003 (ip), vehicle: saline 91 % of control | dose: 600.0 mg/kg/injection, schedule: Q01DX001 (ip), vehicle: other 94 % of control | dose: 800.0 mg/kg/injection, schedule: Q01DX001 (ip), vehicle: other 92 % of control | dose: 800.0 mg/kg/injection, schedule: Q01DX001 (ip), vehicle: saline 86 % of control

CC/C=C(\C)CC(C)O (centres undefined)
inactive: dose: 200.0 mg/kg/injection, schedule: Q04DX002 (ip), vehicle: saline with Tween-80 90 % of control | dose: 400.0 mg/kg/injection, schedule: Q04DX002 (ip), vehicle: saline with Tween-80 90 % of control

C=C1C(=O)OC2C1C(O)C(OC(=O)/C(C)=C\C)C(C)=C1CC3OC3(C)C12 (centres undefined)
inactive: dose: 25.0 mg/kg/injection, schedule: Q01DX001 (ip), vehicle: saline with Tween-80 94 % of control | dose: 50.0 mg/kg/injection, schedule: Q01DX001 (ip), vehicle: saline with Tween-80 105 % of control

COC12C[C@]34CCCN3CC(O1)c1cc3c(cc1[C@@H]4[C@@H]2O)OCO3
inactive: dose: 25.0 mg/kg/injection, schedule: Q01DX009 (ip), vehicle: saline 105 % of control | [1] 112 % of control

CCN1/C(=C/C(C)=C/c2[se]c3ccccc3[n+]2CC)[Se]c2ccc(OC)cc21
inactive: dose: 5.0 mg/kg/injection, schedule: Q01DX001 (ip), vehicle: saline 105 % of control | dose: 10.0 mg/kg/injection, schedule: Q01DX001 (ip), vehicle: saline 100 % of control | dose: 20.0 mg/kg/injection, schedule: Q01DX001 (ip), vehicle: saline 97 % of control | dose: 40.0 mg/kg/injection, schedule: Q01DX001 (ip), vehicle: saline 100 % of control
